Data published in ChEMBL document CHEMBL2440076, “New triarylpyrazoles as broad-spectrum anticancer agents: design, synthesis, and biological evaluation” (Eur J Med Chem, 2013).

Tests used:
Type in all cases: functional
[1] = tested on: K562; test: Growth inhibition of human K562 cells assessed as cell growth at 3X10'-6 M after 48 hrs by sulforhodamine B assay; conditions: K562, 48 h, read-out: Activity
[2] = tested on: SW-620; test: Growth inhibition of human SW620 cells assessed as cell growth at 3X10'-5 M after 48 hrs by sulforhodamine B assay; conditions: SW-620, 48 h, read-out: Activity
[3] = tested on: SNB-19; test: Growth inhibition of human SNB19 cells assessed as cell growth at 3X10'-5 M after 48 hrs by sulforhodamine B assay; conditions: SNB-19, 48 h, read-out: Activity
[4] = tested on: SNB-19; test: Growth inhibition of human SNB19 cells assessed as cell growth at 3X10'-8 M after 48 hrs by sulforhodamine B assay; conditions: SNB-19, 48 h, read-out: Activity
[5] = tested on: OVCAR-5; test: Growth inhibition of human OVCAR5 cells assessed as cell growth at 3X10'-8 M after 48 hrs by sulforhodamine B assay; conditions: OVCAR-5, 48 h, read-out: Activity
[6] = tested on: SK-MEL-28; test: Growth inhibition of human SK-MEL-28 cells assessed as cell growth at 3X10'-7 M after 48 hrs by sulforhodamine B assay; conditions: SK-MEL-28, 48 h, read-out: Activity
[7] = tested on: OVCAR-4; test: Growth inhibition of human OVCAR4 cells assessed as cell growth at 3X10'-6 M after 48 hrs by sulforhodamine B assay; conditions: OVCAR-4, 48 h, read-out: Activity
[8] = tested on: SNB-75; test: Growth inhibition of human SNB75 cells assessed as cell growth at 3X10'-6 M after 48 hrs by sulforhodamine B assay; conditions: SNB-75, 48 h, read-out: Activity
[9] = tested on: Malme-3M; test: Growth inhibition of human MALME-3M cells assessed as cell growth at 3X10'-5 M after 48 hrs by sulforhodamine B assay; conditions: read-out: Activity
[10] = tested on: HL-60(TB); test: Growth inhibition of human HL-60(TB) cells assessed as cell growth at 3X10'-9 M after 48 hrs by sulforhodamine B assay; conditions: HL-60, 48 h, read-out: Activity
[11] = tested on: HL-60(TB); test: Growth inhibition of human HL-60(TB) cells assessed as cell growth at 3X10'-6 M after 48 hrs by sulforhodamine B assay; conditions: HL-60, 48 h, read-out: Activity
[12] = tested on: MDA-MB-435; test: Growth inhibition of human MDA-MB-435 cells assessed as cell growth at 3X10'-8 M after 48 hrs by sulforhodamine B assay; conditions: MDA-MB-435, 48 h, read-out: Activity
[13] = tested on: OVCAR-8; test: Growth inhibition of human OVCAR8 cells assessed as cell growth at 3X10'-8 M after 48 hrs by sulforhodamine B assay; conditions: OVCAR-8, 48 h, read-out: Activity
[14] = tested on: SK-MEL-2; test: Growth inhibition of human SK-MEL-2 cells assessed as cell growth at 3X10'-8 M after 48 hrs by sulforhodamine B assay; conditions: SK-MEL-2, 48 h, read-out: Activity
[15] = tested on: LOX IMVI; test: Growth inhibition of human LOXIMVI cells assessed as cell growth at 3X10'-5 M after 48 hrs by sulforhodamine B assay; conditions: read-out: Activity
[16] = tested on: IGROV-1; test: Growth inhibition of human IGROV1 cells assessed as cell growth at 3X10'-7 M after 48 hrs by sulforhodamine B assay; conditions: IGROV-1, 48 h, read-out: Activity
[17] = tested on: SNB-19; test: Growth inhibition of human SNB19 cells assessed as cell growth at 3X10'-7 M after 48 hrs by sulforhodamine B assay; conditions: SNB-19, 48 h, read-out: Activity
[18] = tested on: CCRF-CEM; test: Growth inhibition of human CCRF-CEM cells assessed as cell growth at 3X10'-5 M after 48 hrs by sulforhodamine B assay; conditions: read-out: Activity
[19] = tested on: COLO 205; test: Growth inhibition of human COLO205 cells assessed as cell growth at 3X10'-6 M after 48 hrs by sulforhodamine B assay; conditions: COLO 205, 48 h, read-out: Activity
[20] = tested on: SF-539; test: Growth inhibition of human SF539 cells assessed as cell growth at 3X10'-6 M after 48 hrs by sulforhodamine B assay; conditions: SF-539, 48 h, read-out: Activity
[21] = tested on: Malme-3M; test: Growth inhibition of human MALME-3M cells assessed as cell growth at 3X10'-7 M after 48 hrs by sulforhodamine B assay; conditions: read-out: Activity
[22] = tested on: OVCAR-3; test: Growth inhibition of human OVCAR3 cells assessed as cell growth at 3X10'-7 M after 48 hrs by sulforhodamine B assay; conditions: OVCAR-3, 48 h, read-out: Activity
[23] = tested on: SF-295; test: Growth inhibition of human SF295 cells assessed as cell growth at 3X10'-6 M after 48 hrs by sulforhodamine B assay; conditions: SF-295, 48 h, read-out: Activity
[24] = tested on: MDA-MB-468; test: Growth inhibition of human MDA-MB-468 cells assessed as cell growth at 3X10'-8 M after 48 hrs by sulforhodamine B assay; conditions: MDA-MB-468, 48 h, read-out: Activity
[25] = tested on: UO-31; test: Growth inhibition of human UO31 cells assessed as cell growth at 3X10'-6 M after 48 hrs by sulforhodamine B assay; conditions: UO-31, 48 h, read-out: Activity
[26] = tested on: A498; test: Growth inhibition of human A498 cells assessed as cell growth at 3X10'-7 M after 48 hrs by sulforhodamine B assay; conditions: A498, 48 h, read-out: Activity
[27] = tested on: HOP-92; test: Growth inhibition of human HOP92 cells assessed as cell growth at 3X10'-9 M after 48 hrs by sulforhodamine B assay; conditions: HOP-92, 48 h, read-out: Activity
[28] = tested on: SN12C; test: Growth inhibition of human SN12C cells assessed as cell growth at 3X10'-6 M after 48 hrs by sulforhodamine B assay; conditions: read-out: Activity
[29] = tested on: MOLT-4; test: Growth inhibition of human MOLT4 cells assessed as cell growth at 3X10'-9 M after 48 hrs by sulforhodamine B assay; conditions: MOLT-4, 48 h, read-out: Activity
[30] = tested on: M14; test: Growth inhibition of human M14 cells assessed as cell growth at 3X10'-7 M after 48 hrs by sulforhodamine B assay; conditions: M14, 48 h, read-out: Activity
[31] = tested on: SK-MEL-5; test: Growth inhibition of human SK-MEL-5 cells assessed as cell growth at 3X10'-9 M after 48 hrs by sulforhodamine B assay; conditions: SK-MEL-5, 48 h, read-out: Activity
[32] = tested on: SF-295; test: Growth inhibition of human SF295 cells assessed as cell growth at 3X10'-5 M after 48 hrs by sulforhodamine B assay; conditions: SF-295, 48 h, read-out: Activity
[33] = tested on: A549; test: Growth inhibition of human A549/ATCC cells assessed as cell growth at 3X10'-6 M after 48 hrs by sulforhodamine B assay; conditions: A549, 48 h, read-out: Activity
[34] = tested on: RXF 393; test: Growth inhibition of human RXF393 cells assessed as cell growth at 3X10'-7 M after 48 hrs by sulforhodamine B assay; conditions: RXF 393, 48 h, read-out: Activity
[35] = tested on: SW-620; test: Growth inhibition of human SW620 cells assessed as cell growth at 3X10'-8 M after 48 hrs by sulforhodamine B assay; conditions: SW-620, 48 h, read-out: Activity
[36] = tested on: KM12; test: Growth inhibition of human KM12 cells assessed as cell growth at 3X10'-9 M after 48 hrs by sulforhodamine B assay; conditions: KM12, 48 h, read-out: Activity

Compound: COc1cc(-c2nn(-c3cccc(NC(=O)Nc4ccc(Cl)c(C(F)(F)F)c4)c3)cc2-c2ccncc2)ccc1Cl
- growth at 3 µM [1]: 12%
- growth at 30 µM [2]: -1%
- growth at 30 µM [3]: -23%
- growth at 0.03 µM [4]: 93%
- growth at 0.03 µM [5]: 89%
- growth at 0.3 µM [6]: 95%
- growth at 3 µM [7]: 19%
- growth at 3 µM [8]: 24%
- growth at 30 µM [9]: -47%
- growth at 0.003 µM [10]: 101%
- growth at 3 µM [11]: 2%
- growth at 0.03 µM [12]: 92%
- growth at 0.03 µM [13]: 101%
- growth at 0.03 µM [14]: 115%
- growth at 30 µM [15]: -72%
- growth at 0.3 µM [16]: 109%
- growth at 0.3 µM [17]: 94%
- growth at 30 µM [18]: 2%
- growth at 3 µM [19]: -49%
- growth at 3 µM [20]: 33%
- growth at 0.3 µM [21]: 96%
- growth at 0.3 µM [22]: 100%
- growth at 3 µM [23]: -11%
- growth at 0.03 µM [24]: 90%
- growth at 3 µM [25]: 3%
- growth at 0.3 µM [26]: 76%
- growth at 0.003 µM [27]: 68%
- growth at 3 µM [28]: 16%
- growth at 0.003 µM [29]: 104%
- growth at 0.3 µM [30]: 100%
- growth at 0.003 µM [31]: 98%
- growth at 30 µM [32]: -70%
- growth at 3 µM [33]: 11%
- growth at 0.3 µM [34]: 88%
- growth at 0.03 µM [35]: 100%
- growth at 0.003 µM [36]: 103%

Compound: COc1cc(-c2nn(-c3cccc(NC(=O)c4ccc(Cl)c(C(F)(F)F)c4)c3)cc2-c2ccncc2)ccc1Cl
- growth at 3 µM [1]: 22%
- growth at 30 µM [2]: 24%
- growth at 30 µM [3]: 29%
- growth at 0.03 µM [4]: 96%
- growth at 0.03 µM [5]: 96%
- growth at 0.3 µM [6]: 95%
- growth at 3 µM [7]: 62%
- growth at 3 µM [8]: 44%
- growth at 30 µM [9]: -6%
- growth at 0.003 µM [10]: 93%
- growth at 3 µM [11]: 58%
- growth at 0.03 µM [12]: 97%
- growth at 0.03 µM [13]: 98%
- growth at 0.03 µM [14]: 100%
- growth at 30 µM [15]: 16%
- growth at 0.3 µM [16]: 95%
- growth at 0.3 µM [17]: 97%
- growth at 30 µM [18]: 4%
- growth at 3 µM [19]: 74%
- growth at 3 µM [20]: 57%
- growth at 0.3 µM [21]: 88%
- growth at 0.3 µM [22]: 98%
- growth at 3 µM [23]: 27%
- growth at 0.03 µM [24]: 91%
- growth at 3 µM [25]: 29%
- growth at 0.3 µM [26]: 82%
- growth at 0.003 µM [27]: 94%
- growth at 3 µM [28]: 68%
- growth at 0.003 µM [29]: 100%
- growth at 0.3 µM [30]: 94%
- growth at 0.003 µM [31]: 99%
- growth at 30 µM [32]: -10%
- growth at 3 µM [33]: 44%
- growth at 0.3 µM [34]: 89%
- growth at 0.03 µM [35]: 97%
- growth at 0.003 µM [36]: 98%

Compound: O=C(Nc1cccc(-n2cc(-c3ccncc3)c(-c3ccc(Cl)c(O)c3)n2)c1)Nc1ccc(Cl)c(Cl)c1
- growth at 3 µM [1]: 16%
- growth at 30 µM [2]: 1%
- growth at 30 µM [3]: 18%
- growth at 0.03 µM [4]: 98%
- growth at 0.03 µM [5]: 96%
- growth at 0.3 µM [6]: 97%
- growth at 3 µM [7]: 28%
- growth at 3 µM [8]: 20%
- growth at 30 µM [9]: -15%
- growth at 0.003 µM [10]: 90%
- growth at 3 µM [11]: 16%
- growth at 0.03 µM [12]: 96%
- growth at 0.03 µM [13]: 98%
- growth at 0.03 µM [14]: 106%
- growth at 30 µM [15]: -77%
- growth at 0.3 µM [16]: 107%
- growth at 0.3 µM [17]: 101%
- growth at 30 µM [18]: 5%
- growth at 3 µM [19]: 61%
- growth at 3 µM [20]: 27%
- growth at 0.3 µM [21]: 102%
- growth at 0.3 µM [22]: 103%
- growth at 0.03 µM [24]: 90%
- growth at 3 µM [25]: 19%
- growth at 0.3 µM [26]: 94%
- growth at 0.003 µM [27]: 98%
- growth at 3 µM [28]: 17%
- growth at 0.003 µM [29]: 98%
- growth at 0.3 µM [30]: 96%
- growth at 0.003 µM [31]: 96%
- growth at 3 µM [33]: 14%
- growth at 0.3 µM [34]: 83%
- growth at 0.03 µM [35]: 98%
- growth at 0.003 µM [36]: 97%
